Legend:
5-HT1A receptor = target: T1, 5-HT1A receptor (Rattus norvegicus, UniProt P19327); conditions: for inhibition at 1 µM: pH 7.7, read-out: % Inhibition at 1 μM, 5-HT1A Receptor Binding
T1 sequence (P19327 1-422): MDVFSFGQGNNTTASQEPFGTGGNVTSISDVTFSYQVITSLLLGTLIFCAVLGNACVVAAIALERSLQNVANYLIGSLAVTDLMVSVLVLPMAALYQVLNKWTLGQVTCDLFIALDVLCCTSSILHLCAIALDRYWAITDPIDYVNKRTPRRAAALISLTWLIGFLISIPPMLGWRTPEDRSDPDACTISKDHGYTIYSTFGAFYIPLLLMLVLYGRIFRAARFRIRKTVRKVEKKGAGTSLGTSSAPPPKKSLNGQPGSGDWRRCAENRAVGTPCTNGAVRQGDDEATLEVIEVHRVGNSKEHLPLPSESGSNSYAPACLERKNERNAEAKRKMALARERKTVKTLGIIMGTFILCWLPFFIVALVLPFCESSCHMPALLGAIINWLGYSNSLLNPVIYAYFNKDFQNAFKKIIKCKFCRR
Experimental: The assay is carried out as follows:
Hippocampal tissue from male Sprague Dawley rats is dissected and homogenized on ice in 40 volumes of buffer A (50 mM Tris-HCl, pH=7.7) using a Polytron homogenizer at setting 5 for 3×15-second bursts. The homogenate is then centrifuged at 20,000 rpm (RC5-B; 50,000 g), and the supernatant is discarded. The pellet is resuspended in 40 volumes of the same buffer and incubated at 37° C. for 10 minutes to aid in the removal of endogenous serotonin. The homogenate is then centrifuged (as above) and the supernatant discarded. The pellet is then resuspended in 100 volumes of buffer B (50 mM Tris HCl, pH=7.7 containing 0.1% ascorbate, 10 μM pargyline and 4 mM CaCl2) and sonicated. An aliquot is taken for protein determination by the Lowry method and the remainder stored frozen at -70° C. until used.
At the end of the incubation, 3 mL of cold buffer A are added to each tube, and the contents rapidly filtered through Whatman GF/B glass-fiber filters. The filters are then rapidly washed 2 times with 3 mL of the same buffer, placed in scintillation vials, and shaken for 15 minutes with 10 mL of Hydrofluor (National Diagnostics) scintillation cocktail. The vials are then counted in a Packard 460CD scintillation counter.
Specific binding is defined as total binding less binding in the presence of excess unlabeled serotonin (1 μM). Binding in the presence of various concentrations of test drug is expressed as a percent of specific binding when no drug is present. […] Ki (inhibition constant) for the test drug is then calculated by the formula: [formula]

anxiety = conditions: cited from earlier work; for efficacy in the treatment of anxiety neuroses (in words): clinical, compared with diazepam
5-HT1A receptors = conditions: compared with buspirone; cited from earlier work

Row | Compound | inhibition at 1 µM (5-HT1A receptor) [%] | efficacy in the treatment of anxiety neuroses (in words) (anxiety) | anxiolytic activity in clinical trials (in words) (anxiety) | further results
1 | O=C1CC2(CCCC2)CC(=O)N1CCCCN1CCN(c2ncccn2)CC1 [Buspirone] | 94 |  |  | 
2 | Cc1nc2sccn2c(=O)c1CCN1CCC(=C(c2ccc(F)cc2)c2ccc(F)cc2)CC1 [ritanserin] |  | comparable to the benzodiazepine diazepam |  | 
3 | O=C1c2ccccc2S(=O)(=O)N1CCCCN1CCN(c2ncccn2)CC1 [ipsapirone] |  |  | potent anxiolytic drugs | selectivity for 5-HT1A receptors relative to buspirone (in words) (5-HT1A receptors): higher degree of selectivity for 5-HT1A receptors than buspirone
4 | O=C1c2ccccc2S(=O)(=O)N1CCCCN1CCN(c2nccc3ccncc23)CC1 [Example 1, 2-[4-[4-(2,7-Naphthyridin-1-yl)-1-piperazinyl]butyl]-1,2-benzoisothiazol-3(2H)-one 1,1-Dioxide] | 100 |  |  | affinity for the 5-HT1A receptor site (in words) (5-HT1A receptor; conclusion from Table 1): high affinity
5 | CC1(C)CC(=O)N(CCCCN2CCN(c3ncccn3)CC2)C(=O)C1 [Gepirone, 4,4-dimethyl-1-[4-[4-(2-pyrimidinyl)-1-piperazinyl]butyl]-2,6-piperidinedione] |  | comparable to the benzodiazepine diazepam | potent anxiolytic drugs | 

Reference: patent US4859671A, “2-substituted 1,2-benzisothiazol-3(2H)-one 1,1-dioxide useful as an anxiolytic agent” (American Home Products Corporation, priority 1988, dated 1989)
